Assay results as given in article PMC7556481 (PLoS Pathogens, 2020).

Target: T1, C. elegans ser-7a / SER-7 (Caenorhabditis elegans, UniProt Q22895)
T1 construct: ser-7a cDNA expressed pan-neuronally (Psnb-1) in C. elegans ser-7(tm1325) null mutant
T1 sequence (Q22895 1-435): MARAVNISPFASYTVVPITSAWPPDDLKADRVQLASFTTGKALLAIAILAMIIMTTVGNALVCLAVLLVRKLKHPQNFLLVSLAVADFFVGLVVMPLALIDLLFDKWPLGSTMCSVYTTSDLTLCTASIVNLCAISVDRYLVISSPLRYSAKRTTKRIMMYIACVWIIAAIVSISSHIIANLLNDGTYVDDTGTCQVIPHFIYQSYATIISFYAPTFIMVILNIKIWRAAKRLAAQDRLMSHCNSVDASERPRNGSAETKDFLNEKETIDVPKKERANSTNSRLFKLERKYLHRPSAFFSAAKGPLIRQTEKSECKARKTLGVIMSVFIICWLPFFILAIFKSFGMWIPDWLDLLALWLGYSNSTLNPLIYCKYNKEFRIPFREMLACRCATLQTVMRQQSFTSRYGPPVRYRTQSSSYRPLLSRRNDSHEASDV
Assay: pharyngeal pumping of cut-head preparation, C. elegans ser-7 null expressing ser-7a
Details: agonist; Dent's saline pH 7.4, 0.1% BSA; response dependent on SER-7

For `NCCc1c[nH]c2ccc(O)cc12` [serotonin], which EC50 is on record?
Its EC50 is 782 nM.
